Reference: patent US11052157B2 (priority 2014, dated 2021)
Counter-ions that a name gives are not always drawn.

Tests used:
[1] = Fluorescence readings of doxorubicin loading solutions with folic acid (plate reader); assay type: physicochemical; settings: for % Fluorescence Em λ590 nm / % Fluorescence Em λ620 nm: excitation 485 nm
Protocol: The solutions were incubated at room temperature overnight and then were filtered through a 0.1 μm filter, to sterilize the solutions and to remove any particulates.
On the following day the fluorescence of an aliquot of each solution was measured with a fluorescence plate reader (excitation wavelength: 485 nm, emission wavelengths: 590 nm and 620 nm). Concomitantly, minicells were washed with PBS buffer and then were loaded with one or another of each of the Dox+FA solutions, previously prepared at a density of 2.5×10^10 minicells/ml, in a volume between about 1 ml to 2 mls. Samples (500 μl) were taken from each of the treatment groups at the time points of 30 minutes, 1 hour, 2 hours, 4 hours, 6 hours, and overnight.

[2] = system: MDA-MB-468 human breast cancer cells; assay: Incubation of non-targeted doxorubicin-loaded minicells (small-scale protocol) with cancer cells, confocal microscopy; assay type: cell-based; settings: 1×10^8 non-targeted doxorubicin-loaded minicells (small-scale protocol), 10^4 cells per well; within two days
Protocol: Upon overnight incubation with the drug (about 1 ml/mg) at 37° C. with rotation, the loaded minicells were subjected five times to a washing step that entailed centrifugation (13,200 rpm, 10 minutes) and resuspension of the resultant pellet in 1 ml BSG buffer (pH 7.4).
The washed, doxorubicin-loaded minicells (1×10^8) then were incubated with estrogen receptor-negative MDA-MB-468 human breast cancer cells (10^4 cells per well) in Gibco RPMI-1640 tissue culture medium (in 0.5 ml per well) supplemented with 10% Fetal Bovine Serum, 2 mM L-glutamine, and 100 U/ml of both penicillin G and streptomycin.
The cells were monitored subsequently every 24 hours via confocal microscopy.

[3] = system: intact, bacterially derived minicells; assay: Flow cytometry of dye-packaged minicells (FL1 channel); parameters: species or system Salmonella enterica serovar Typhimurium; settings: BacLight Green 200 nM, 30 minutes, room temperature
Protocol: Minicells packaged with BacLight™ Green were analyzed by flow cytometry (Beckman Coulter FC500). Empty minicells and BacLight™ Green-packaged minicells were labeled with an anti-LPS alexa fluor 647 (AF647) antibody. Firstly, the minicells were analyzed using the FL4 channel to detect anti-LPS AF647-stained minicells. The minicell population was visualized in a dot plot using FL4 fluorescence versus forward scatter, and the population was gated to select anti-LPS AF647 stained minicells only, disregarding any debris.
The gated population was analyzed on the FL1 channel, to detect BacLight™ Green fluorescence.
Minicells loaded with SYTO 9® were analyzed by flow cytometry (Beckman Coulter FC500). Empty minicells and SYTO® 9-stained minicells were labeled with an anti-LPS alexa fluor 647 (AF647) antibody. Firstly, the minicells were analyzed using the FL4 channel to detect anti-LPS AF647-stained minicells. The minicell population was visualized in a dot plot, using FL4 fluorescence versus forward scatter, and the population was gated to select anti-LPS AF647-stained minicells only, disregarding any debris. The gated population then was analyzed on the FL1 channel, to detect SYTO 9 fluorescence.

[4] = cited from earlier work

## doxorubicin
[1]; 0 μg/ml FA, Dox 100 pg/ml in PBS
  % Fluorescence Em λ590 nm: 100%
[1]; 0 μg/ml FA
  % Fluorescence Em λ620 nm: 100%
[1]; 50 μg/ml FA
  % Fluorescence Em λ590 nm: 93%
  % Fluorescence Em λ620 nm: 94%
[1]; 50 μg/ml folic acid
  doxorubicin emission fluorescence lost: 6-7%
[1]; 400 μg/ml FA
  % Fluorescence Em λ590 nm: 61%
  % Fluorescence Em λ620 nm: 59%
[1]; 400 μg/ml of folic acid
  doxorubicin fluorescence emission signal lost: ~40%
[2]
  doxorubicin entry into cancer cells (confocal microscopy): red fluorescence in their nuclei

## CN1C(=CC=Cc2n(Cc3ccc(CCl)cc3)c3cc(Cl)c(Cl)cc3[n+]2Cc2ccc(CCl)cc2)Oc2ccccc21.[Cl-] [BacLight™ Green]
[3]
  minicells that are fluorescent: greater than 95%

## O=C1c2c(O)ccc(O)c2C(=O)c2c(NCCNCCO)ccc(NCCNCCO)c21 [MTX, mitoxantrone dihydrochloride]
[4]
  solubility in water: 5000 to 7500 µg/mL
